Measurements from patent US20250268855A1, “PHARMACEUTICAL AND NUTRACEUTICAL COMPOSITIONS WITH A COMBINATION OF AMINO ACIDS AND ITS USE IN DISEASES CHARACTERIZED BY LIPID ACCUMULATION IN TISSUES” (FUNDACIÓ EURECAT, priority 2022, published 2025).

Columns and labels:
[1] = test system: hepatocyte cell line (HepG2); assay: In vitro assay of gene expression in hepatocyte cell line; assay type: cell-based, human; conditions: HepG2, 24 h; Histidine 10 mM, carnosine 5 mM, cysteine 5 mM, serine 5 mM; vs. control
Method: These concentrations were conserved with the different combinations. Data are expressed as mean±SEM; n=3-4 per condition. *p<0.05; **p<0.01, ***p<0.001 vs. vehicle.
An in vitro assay was also carried out using the hepatocyte cell line (HepG2) to test the effect of different combinations of the supplemented amino acids in hepatic expression of key genes of fatty acid beta-oxidation (carnitine palmitoyltransferase, Cpt1a), inflammation (chemokine (C-C motif) ligand 2, CCL2), lipolysis (hormone-sensitive, HSL; and lipin, LPIN) and lipogenesis (fatty acid synthase, FASN). Gene expression was determined by qPCR as previously indicated (see materials and methods in example 1). […] The Cpt1a enzyme is located in the outer membrane, and it is the key enzyme in the carnitine-dependent transport across the mitochondrial inner membrane. Its deficiency results in a decreased rate of fatty acid beta-oxidation.
Data are depicted in FIG. 7, wherein the level of expression (mRNA) is indicated for any of the supplemented media. […]

[2] = test system: mice consumed high saturated fat diet; conditions: Mong et al.; cited from earlier work

SMILES	Cpt1a mRNA expression (the cited enzyme) [1]	body weight [2]	epididymal fat [2]	hepatic cholesterol levels [2]	hepatic triglyceride levels [2]	hyper-insulinemia [2]	insulin sensitivity [2]
NCCC(=O)N[C@@H](Cc1cnc[nH]1)C(=O)O [carnosine]	trend to reduce the effect	lowered	lowered	lowered	lowered	attenuated	improved
N[C@@H](Cc1c[nH]cn1)C(=O)O [histidine]	–	lowered	lowered	lowered	lowered	attenuated	improved
